Measured values from ChEMBL document CHEMBL4138216, “Design, synthesis and structure-activity relationship of a focused library of β-phenylalanine derivatives as novel eEF2K inhibitors with apoptosis-inducing mechanisms in breast cancer” (Eur J Med Chem, 2018).
Calls of active or inactive are those of the source. No cut-off for these calls is given here.

Experiments:
[1] = molecular target: T1, Eukaryotic elongation factor 2 kinase (Homo sapiens, UniProt O00418); experiment: Inhibition of eEF2K (unknown origin) using peptide MH-1 as substrate after 2 hrs by ADP-Glo luminescent assay
T1 sequence (O00418 whole entry): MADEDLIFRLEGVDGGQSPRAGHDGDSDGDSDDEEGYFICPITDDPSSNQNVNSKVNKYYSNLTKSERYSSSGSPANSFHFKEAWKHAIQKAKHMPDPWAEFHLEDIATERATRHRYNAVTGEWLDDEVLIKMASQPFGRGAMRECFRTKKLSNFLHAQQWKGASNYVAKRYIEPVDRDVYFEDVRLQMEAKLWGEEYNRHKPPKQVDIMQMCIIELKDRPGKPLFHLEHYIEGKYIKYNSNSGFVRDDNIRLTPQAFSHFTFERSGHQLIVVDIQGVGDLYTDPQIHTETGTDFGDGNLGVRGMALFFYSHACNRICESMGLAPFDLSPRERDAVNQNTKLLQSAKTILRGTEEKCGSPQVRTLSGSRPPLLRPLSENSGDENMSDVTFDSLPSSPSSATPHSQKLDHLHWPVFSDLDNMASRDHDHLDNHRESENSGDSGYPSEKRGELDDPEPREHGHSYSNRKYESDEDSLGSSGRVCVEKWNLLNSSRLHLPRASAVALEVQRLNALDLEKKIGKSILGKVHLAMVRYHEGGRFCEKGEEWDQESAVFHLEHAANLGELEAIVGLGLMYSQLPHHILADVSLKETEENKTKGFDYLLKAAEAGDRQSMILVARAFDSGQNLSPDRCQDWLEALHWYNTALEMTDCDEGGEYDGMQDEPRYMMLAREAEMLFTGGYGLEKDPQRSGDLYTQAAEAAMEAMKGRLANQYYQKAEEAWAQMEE

MDA-MB-436 [2] = experiment: Antiproliferative activity against human MDA-MB-436 cells assessed as decrease in cell viability after 24 hrs by MTT assay; type: functional, cell-based; settings: MDA-MB-436, 24 h
MDA-MB-231 [3] = experiment: Induction of apoptosis in human MDA-MB-231 cells assessed as membrane blebbing by phase contrast microscopy; type: functional, cell-based
MDA-MB-436 [4] = experiment: Induction of apoptosis in human MDA-MB-436 cells assessed as membrane blebbing by phase contrast microscopy; type: functional, cell-based
MDA-MB-436 [5] = experiment: Induction of apoptosis in human MDA-MB-436 cells assessed as formation of apoptotic bodies by phase contrast microscopy; type: functional, cell-based
MDA-MB-436 [6] = experiment: Induction of apoptosis in human MDA-MB-436 cells assessed as DNA condensation after 12 to 36 hrs by Hoechst 33258 staining-based fluorescence assay; type: functional, cell-based
MDA-MB-436 [7] = experiment: Induction of apoptosis in human MDA-MB-436 cells assessed as loss of mitochondrial membrane potential after 12 to 36 hrs by rhodamine123 staining-based flow cytometric method; type: functional, cell-based
MDA-MB-231 [8] = experiment: Induction of apoptosis in human MDA-MB-231 cells assessed as upregulation of Bax expression after 12 to 36 hrs by Western blot method; type: functional, cell-based
MDA-MB-436 [9] = experiment: Induction of apoptosis in human MDA-MB-436 cells assessed as upregulation of Bax expression after 12 to 36 hrs by Western blot method; type: functional, cell-based
MDA-MB-231 [10] = experiment: Induction of apoptosis in human MDA-MB-231 cells assessed as downregulation of Bcl-2 expression after 12 to 36 hrs by Western blot method; type: functional, cell-based
MDA-MB-436 [11] = experiment: Induction of apoptosis in human MDA-MB-436 cells assessed as downregulation of Bcl-2 expression after 12 to 36 hrs by Western blot method; type: functional, cell-based
MDA-MB-231 [12] = experiment: Induction of apoptosis in human MDA-MB-231 cells assessed as increase in caspase-3 cleavage after 12 to 36 hrs by Western blot method; type: functional, cell-based
MDA-MB-436 [13] = experiment: Induction of apoptosis in human MDA-MB-436 cells assessed as increase in caspase-3 cleavage after 12 to 36 hrs by Western blot method; type: functional, cell-based
MDA-MB-436 [14] = experiment: Induction of apoptosis in human MDA-MB-436 cells assessed as increase in PARP cleavage after 12 to 36 hrs by Western blot method; type: functional, cell-based
MDA-MB-231 [15] = experiment: Antitumor activity against human MDA-MB-231 cells xenografted in ig dosed BALB/c nude mouse assessed as tumor growth inhibition administered once a day measured every 3 days for 24 days during compound dosing; type: functional, organism-based
MDA-MB-436 [16] = experiment: Antitumor activity against human MDA-MB-436 cells xenografted in ig dosed BALB/c nude mouse assessed as tumor growth inhibition administered once a day measured every 3 days for 24 days during compound dosing; type: functional, organism-based
Mus musculus [17] = experiment: Toxicity in BALB/c nude mouse xenografted with human MDA-MB-231 cells assessed as body weight loss at 25 mg/kg, ig qd measured every 3 days for 24 days during compound dosing; type: organism-based; settings: in vivo, po
Mus musculus [18] = experiment: Toxicity in BALB/c nude mouse xenografted with human MDA-MB-436 cells assessed as body weight loss at 25 mg/kg, ig qd measured every 3 days for 24 days during compound dosing; type: organism-based; settings: in vivo, po, 576 h
Mus musculus [19] = experiment: Toxicity in BALB/c nude mouse xenografted with human MDA-MB-231 cells assessed as effect on liver weight at 25 to 100 mg/kg, ig qd measured after 24 days; type: organism-based; settings: in vivo, po, 576 h
Mus musculus [20] = experiment: Toxicity in BALB/c nude mouse xenografted with human MDA-MB-436 cells assessed as effect on kidney weight at 25 to 100 mg/kg, ig qd measured after 24 days; type: organism-based; settings: in vivo, po, 576 h
Mus musculus [21] = experiment: Toxicity in BALB/c nude mouse xenografted with human MDA-MB-436 cells assessed as decrease in spleen weight at 100 mg/kg, ig qd measured after 24 days; type: organism-based; settings: in vivo, po, 576 h
Mus musculus [22] = experiment: Toxicity in BALB/c nude mouse xenografted with human MDA-MB-231 cells assessed as decrease in spleen weight at 100 mg/kg, ig qd measured after 24 days; type: organism-based; settings: in vivo, po, 576 h
MDA-MB-231 [23] = experiment: Induction of apoptosis in human MDA-MB-231 cells xenografted in BALB/c nude mouse at 25 to 100 mg/kg, ig qd measured after 24 days by TUNEL assay; type: functional, organism-based
MDA-MB-231 [24] = experiment: Induction of apoptosis in human MDA-MB-231 cells xenografted in BALB/c nude mouse assessed as decrease in pro-caspase-3 levels at 25 to 100 mg/kg, ig qd measured after 24 days by immunohistochemical analysis; type: functional, organism-based
MDA-MB-231 [25] = experiment: Induction of apoptosis in human MDA-MB-231 cells xenografted in BALB/c nude mouse assessed as increase in PARP cleavage at 25 to 100 mg/kg, ig qd measured after 24 days by Western blot method; type: functional, organism-based
MDA-MB-231 [26] = experiment: Induction of apoptosis in human MDA-MB-231 cells xenografted in BALB/c nude mouse assessed as increase in caspase-3 cleavage at 25 to 100 mg/kg, ig qd measured after 24 days by Western blot method; type: functional, organism-based
Mus musculus [27] = experiment: In vivo inhibition of eEF2K phosphorylation in tumor of BALB/c nude mouse xenografted with human MDA-MB-231 cells at 25 to 100 mg/kg, ig qd measured after 24 days by Western blot method; type: functional, organism-based
MDA-MB-231 [28] = experiment: cells; settings: Homo sapiens, MDA-MB-231, 24 h
Description: Antiproliferative activity against human MDA-MB-231 cells assessed as decrease in cell viability after 24 hrs by MTT assay

- IC50 [1]: 5.5 µM
- IC50 (MDA-MB-436 [2]): 19.8 µM
- IC50 (MDA-MB-231 [28]): 12.6 µM
SMILES: N#Cc1ccc(S(=O)(=O)NC(CC(=O)O)c2ccc(Cl)cc2Cl)cc1 (stereo not drawn)
- Activity (MDA-MB-231 [3]): Active
- Activity (MDA-MB-436 [4]): Active
- Activity (MDA-MB-436 [5]): Active
- Activity (MDA-MB-436 [6]): Active
- Activity (MDA-MB-436 [7]): Active
- Activity (MDA-MB-231 [8]): Active
- Activity (MDA-MB-436 [9]): Active
- Activity (MDA-MB-231 [10]): Active
- Activity (MDA-MB-436 [11]): Active
- Activity (MDA-MB-231 [12]): Active
- Activity (MDA-MB-436 [13]): Active
- Activity (MDA-MB-436 [14]): Active
- TGI (MDA-MB-231 [15]): Dose-dependent effect
- TGI (MDA-MB-436 [16]): Dose-dependent effect
- Activity (Mus musculus [17]): Toxic
- Activity (Mus musculus [18]): Toxic
- Activity (Mus musculus [19]): Non-Toxic
- Activity (Mus musculus [20]): Non-Toxic
- Activity (Mus musculus [21]): Toxic
- Activity (Mus musculus [22]): Toxic
- Activity (MDA-MB-231 [23]): Active
- Activity (MDA-MB-231 [24]): Active
- Activity (MDA-MB-231 [25]): Active
- Activity (MDA-MB-231 [26]): Active
- inhibition (Mus musculus [27]): Active
